# Patent US9896441B2 (Lycera Corporation, priority 2014, dated 2018)
# Experiments:
# [1] = biological target: T1, RORγ-LBD (Homo sapiens, UniProt P51449); experiment: RORγ-Ligand Binding Domain (LBD) TR-FRET Assay; format: biochemical
# T1 construct: made in house; host or cells: SF9 cells (baculovirus); used as diluted lysate
# T1 sequence (P51449 269-508 limits assumed): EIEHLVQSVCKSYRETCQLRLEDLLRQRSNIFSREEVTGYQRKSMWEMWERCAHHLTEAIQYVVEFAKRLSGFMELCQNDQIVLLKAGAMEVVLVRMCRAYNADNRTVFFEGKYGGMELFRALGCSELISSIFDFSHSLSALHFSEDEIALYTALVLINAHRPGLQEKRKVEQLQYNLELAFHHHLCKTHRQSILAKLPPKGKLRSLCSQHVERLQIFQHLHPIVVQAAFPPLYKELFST
# Summary of the method: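 TR-FRET read-out using a biotin-tagged SRC1 coactivator LXXLL peptide (200 nM final), with the antagonist ursolic acid present at 2 μM final. Receptor is His-tagged LBD expressed in SF9 cells, ~3 nM final in pH 7.0 Tris/KCl/EDTA/DTT/BSA buffer; compounds in 1% DMSO final.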
# [2] = biological target: T2, Gal4-RORγ-LBD (Homo sapiens, UniProt P51449); experiment: Gal4-RORγ Luciferase Reporter Assay in HEK-293T Cells; format: cell-based; conditions: HEK-293 cells, luciferase reporter
# T2 construct: expressed in transfected cells
# T2 sequence (P51449 269-508 limits assumed): T1 sequence (P51449 269-508 limits assumed)
# Experimental: Assay procedures and results are described below.
# In the following protocol, HEK-293 cells were transfected with a construct comprising the Gal4 DNA binding domain fused to the ligand binding domain of RORγ (Gal4-RORγ-LBD) in a pcDNA3.1neo plasmid, and also with a reporter construct comprising pGL4.31 Gal4-luciferase (Promega). Control cells were prepared similarly using empty pcDNA3.1neo and pGL4.31 vectors.
# Trans-IT reagent (Mirus, 60 μL) at room temperature was added drop wise to OptiMEM (Invitrogen, 1.5 ml). This reagent mixture was mixed by inversion then incubated for 5 to 30 minutes at room temperature. It then was added to a solution of both expression vectors (5 μg each), mixed, and incubated at room temperature for about 20 minutes. HEK-293 cells were harvested from incubation flasks by removing the media, treating with TrypLE Express (Invitrogen), and incubating until the cells detached from the bottom of the flask (approximately 2-5 minutes). 10 Million cells were collected by centrifugation and re-suspended in 10 mL of Dulbecco's Modified Eagle Medium, High Glucose (DMEM, Invitrogen) containing 10% Fetal Bovine Serum and 100 IU each of penicillin and streptomycin. The re-suspended cells and the transfection mixture were added to a T75 flask, mixed and incubated overnight at 37° C. and 5% CO2.
# The cells were harvested as described above, counted, and centrifuged to obtain the desired number of cells, then re-suspended in complete growth media at 0.75×10^6 cells/mL. The RORγ antagonist, ursolic acid, was added to the cells at a final concentration of […]. Cells were plated at 20 µL of cell suspension/well (10,000-15,000 cells/well) in white tissue culture treated 384 well plates. Test compounds were dissolved at 10 mM in DMSO then diluted into complete growth medium to 5× the final intended test concentration. These drug stock solutions, 5 µL/well were added to the tissue culture plate. The final DMSO concentration was 0.2%. The plates were briefly centrifuged then incubated overnight at 37° C. and 5% CO2. To conduct the assay, the tissue culture plates were allowed to equilibrate to room temperature and One-Glo luciferase reagent (Promega, 25 µL/well) was added. The plates were briefly centrifuged then incubated at room temperature for 10 minutes. The luciferase intensity was read on an Envision plate reader (Perkin Elmer). […] The luciferase signal in the absence of ursolic acid or test compound is defined at 100. The Max Response is the upper plateau in the signal as determined by line-fit using a 4-parameter logistic model in PRISM (GraphPad).
SMILES,EC50 ([1]; RORγ-LBD TR-FRET) [µM],EC50 ([2]; with ursolic acid) [µM],EC50 ([1]; RORγ-LBD TR-FRET assay) [µM],EC50 ([2]; in presence of ursolic acid) [µM]
"COc1cc(S(=O)(=O)N2CCCc3ccc(O[C@@H]4c5ccccc5C[C@H]4C)cc32)ccc1F (relative stereo) [Example 25E, 1-((4-fluoro-3-methoxyphenyl)sulfonyl)-7-(((trans)-2-methyl-2,3-dihydro-1H-inden-1-yl)oxy)-1,2,3,4-tetrahydroquinoline]",< 0.5,0.5 to 5,–,–
"O=C(O)CC[C@H]1CC(S(=O)(=O)c2cccc(C(F)(F)F)c2)c2cc(OCc3c(F)cccc3Cl)ccc2O1 (stereo in doubt) [Example 186A, 3-(6-((2-chloro-6-fluorobenzyl)-oxy)-4-((3-(trifluoromethyl)-phenyl)sulfonyl)chroman-2-yl)propanoic acid]",–,–,< 0.5,0.5 to 5
"C/C(=C\c1ccc2c(c1)N(S(=O)(=O)c1cccc(C(F)(F)F)c1)CC(C(=O)O)C2)c1c(F)cccc1C(F)(F)F (stereo not shown) [Example 15C, (E)-7-(2-(2-fluoro-6-(trifluoromethyl)phenyl)prop-1-en-1-yl)-1-((3-(trifluoromethyl)phenyl)sulfonyl)-1,2,3,4-tetrahydroquinoline-3-carboxylic acid]",< 0.5,0.5 to 5,–,–
"O=C(O)C1Cc2ccc(/C=C/c3c(Cl)cccc3C(F)(F)F)cc2N(S(=O)(=O)c2cccc(C(F)(F)F)c2)C1 (stereo not shown) [Example 15D, (E)-7-(2-chloro-6-(trifluoromethyl)styryl)-1-((3-(trifluoromethyl)phenyl)sulfonyl)-1,2,3,4-tetrahydroquinoline-3-carboxylic acid]",< 0.5,0.5 to 5,–,–
"COc1cc(S(=O)(=O)N2CCCc3ccc(OC4CCCc5ccccc54)cc32)ccc1F (stereo not shown) [Example 25C, 1-((4-fluoro-3-methoxyphenyl)sulfonyl)-7-((1,2,3,4-tetrahydronaphthalen-1-yl)oxy)-1,2,3,4-tetrahydroquinoline]",< 0.5,< 0.5,–,–
"O=S(=O)(c1cccc(C(F)(F)F)c1)N1CCCc2cc(OCc3c(F)cccc3Cl)ccc21 [Example 25J, 6-((2-chloro-6-fluorobenzyl)oxy)-1-((3-(trifluoromethyl)phenyl)sulfonyl)-1,2,3,4-tetrahydroquinoline]",< 0.5,0.5 to 5,–,–
"COc1cc(S(=O)(=O)N2CCCc3ccc(OCc4c(Cl)cccc4Cl)cc32)ccc1F [Example 25P, 7-((2,6-dichlorobenzyl)oxy)-1-((4-fluoro-3-methoxyphenyl)sulfonyl)-1,2,3,4-tetrahydroquinoline]",< 0.5,< 0.5,–,–
"COc1cc(S(=O)(=O)N2CCCc3ccc(OCc4c(Cl)cccc4C(F)(F)F)cc32)ccc1F [Example 25Q, 7-((2-chloro-6-(trifluoromethyl)benzyl)oxy)-1-((4-fluoro-3-methoxyphenyl)sulfonyl)-1,2,3,4-tetrahydroquinoline]",< 0.5,< 0.5,–,–
"COc1cc(S(=O)(=O)N2CCCc3ccc(OCc4c(F)cccc4C(F)(F)F)cc32)ccc1F [Example 25R, 1-((4-fluoro-3-methoxyphenyl)sulfonyl)-7-((2-fluoro-6-(trifluoromethyl)benzyl)oxy)-1,2,3,4-tetrahydroquinoline]",< 0.5,< 0.5,–,–
"COc1cc(S(=O)(=O)N2CCCc3ccc(OCc4c(C)cccc4Cl)cc32)ccc1F [Example 25W, 7-((2-chloro-6-methylbenzyl)oxy)-1-((4-fluoro-3-methoxyphenyl)sulfonyl)-1,2,3,4-tetrahydroquinoline]",< 0.5,< 0.5,–,–
"COC(=O)C(C)(C)C[C@@H]1Cc2ccc(OCc3c(F)cccc3Cl)cc2N(S(=O)(=O)c2ccc(F)c(OC)c2)C1 [Example 26, (S)-Methyl 3-(7-((2-chloro-6-fluorobenzyl)oxy)-1-((4-fluoro-3-methoxyphenyl)sulfonyl)-1,2,3,4-tetrahydroquinolin-3-yl)-2,2-dimethylpropanoate]",< 0.5,< 0.5,–,–
"COc1cc(S(=O)(=O)N2C[C@H](CC(C)(C)C(=O)O)Cc3ccc(OCc4c(F)cccc4Cl)cc32)ccc1F [Example 27, (S)-3-(7-((2-Chloro-6-fluorobenzyl)oxy)-1-((4-fluoro-3-methoxyphenyl)sulfonyl)-1,2,3,4-tetrahydroquinolin-3-yl)-2,2-dimethylpropanoic acid]",< 0.5,< 0.5,–,–
"COC(=O)CC[C@H]1CN(S(=O)(=O)c2cccc(C(F)(F)F)c2)c2cc(/C(C)=C/c3c(F)cccc3Cl)ccc2O1 [Example 31, (S,E)-Methyl 3-(6-(1-(2-chloro-6-fluorophenyl)prop-1-en-2-yl)-4-((3-(trifluoromethyl)phenyl)sulfonyl)-3,4-dihydro-2H-benzo[b][1,4]oxazin-2-yl)propanoate]",< 0.5,0.5 to 5,–,–
"C/C(=C\c1c(F)cccc1Cl)c1ccc2c(c1)N(S(=O)(=O)c1cccc(C(F)(F)F)c1)C[C@H](CCC(=O)O)O2 [Example 32, (S,E)-3-(6-(1-(2-Chloro-6-fluorophenyl)prop-1-en-2-yl)-4-((3-(trifluoromethyl)phenyl)sulfonyl)-3,4-dihydro-2H-benzo[b][1,4]oxazin-2-yl)propanoic acid]",< 0.5,5 to 10,–,–
"CCOc1ncc(C(F)(F)F)cc1S(=O)(=O)N1C[C@H](CCC(=O)OC)Oc2ccc(/C=C(\C)c3c(F)cccc3Cl)cc21 [Example 33, (S,E)-Methyl 3-(6-(2-(2-chloro-6-fluorophenyl)prop-1-en-1-yl)-4-((2-ethoxy-5-(trifluoromethyl)pyridin-3-yl)sulfonyl)-3,4-dihydro-2H-benzo[b][1,4]oxazin-2-yl)propanoate]",< 0.5,0.5 to 5,–,–
"CCOc1ncc(C(F)(F)F)cc1S(=O)(=O)N1C[C@H](CCC(=O)O)Oc2ccc(/C=C(\C)c3c(F)cccc3Cl)cc21 [Example 34, (S,E)-3-(6-(2-(2-Chloro-6-fluorophenyl)prop-1-en-1-yl)-4-((2-ethoxy-5-(trifluoromethyl)pyridin-3-yl)sulfonyl)-3,4-dihydro-2H-benzo[b][1,4]oxazin-2-yl)propanoic acid]",< 0.5,0.5 to 5,–,–
"CC/C(=C\c1ccc2c(c1)N(S(=O)(=O)c1cccc(C(F)(F)F)c1)C[C@H](CCC(=O)OC)O2)c1ccccc1Cl [Example 35, Methyl (S,E)-3-(6-(2-(2-chlorophenyl)but-1-en-1-yl)-4-((3-(trifluoromethyl)phenyl)sulfonyl)-3,4-dihydro-2H-benzo[b][1,4]oxazin-2-yl)propanoate]",< 0.5,0.5 to 5,–,–
"CC/C(=C\c1ccc2c(c1)N(S(=O)(=O)c1cccc(C(F)(F)F)c1)C[C@H](CCC(=O)O)O2)c1ccccc1 [Example 36C, (S,E)-3-(6-(2-phenylbut-1-en-1-yl)-4-((3-(trifluoromethyl)-phenyl)sulfonyl)-3,4-dihydro-2H-benzo[b][1,4]oxazin-2-yl)propanoic acid]",< 0.5,0.5 to 5,–,–
"O=C(O)CC[C@H]1CN(S(=O)(=O)c2cccc(C(F)(F)F)c2)c2cc(/C=C3\CCCc4ccccc43)ccc2O1 [Example 37, (S,E)-3-(6-((3,4-Dihydronaphthalen-1(2H)-ylidene)methyl)-4-((3-(trifluoromethyl)phenyl)sulfonyl)-3,4-dihydro-2H-benzo[b][1,4]oxazin-2-yl)propanoic acid]",< 0.5,< 0.5,–,–
"COC(=O)CC[C@H]1CN(S(=O)(=O)c2cccc(C(F)(F)F)c2)c2cc(/C=C3\CCOc4ccccc43)ccc2O1 [Example 38A, methyl (S,E)-3-(6-(chroman-4-ylidenemethyl)-4-((3-(trifluoromethyl)phenyl)sulfonyl)-3,4-dihydro-2H-benzo[b][1,4]oxazin-2-yl)propanoate]",< 0.5,0.5 to 5,–,–
